Legend:
[1] = test system: SKOV3 cells; experiment: Boyden chamber chemotaxis/migration of SKOV3 cells; type: cell-based
Method: A2780 (FIG. 10a) and SKOV3 (FIG. 10b) cells were incubated with the indicated concentrations of Å6 peptide for 30 min at 37° C. Aliquots representing 6,000 cells were placed on quadruplicate, CnI-coated filters (8 μm pores) in Boyden chambers and the cells allowed to migrate overnight in response to 10 ng/ml VEGF in NIH3T3-conditioned media containing the indicated concentrations of Å6. Upon completion of migration, the apical surfaces of the membranes were wiped clean and the migrating cells on the basal surface were stained with Geimsa stain and the cells present in representative fields of the membranes counted. Data represent the averages+/−standard deviations obtained from the replicate filters. […] This provides further confirmation that CD44 is the target for the Å6 peptide.
SKOV3 cells are harvested by trypsinization and washed once with RPMI−0.5% BSA. Next, the cells are re-suspended in RPMI+0.5% BSA @ 6E4/mL (6000 cells/100 μL). The peptide is pre-treated with 500 μL of cells added to 500 μL peptide NASAPPEE (2× concentration, final conc. at 100, 10, 1, 0.1, 0.01, 0.001 uM) and the mixture incubated 30 minutes at 37° C., under 5% CO2. The Boyden chamber is assembled by: Placing in the bottom chambers: 220 μL of serum/BSA free DMEM or NIH3T3CM+10 ng/ml VEGF or NIH3T3CM+10 ng/ml VEGF+peptide. Place 8 μm filters on the top of the bottom chambers. The 8 μm filters are coated with 1 mg/ml collagen I at 4° C. overnight, washed with PBS twice, air dry before use. Add 200 μL of cells with or without peptide pretreatment to the top of Boyden chamber. Note that the peptide is in both top and bottom chambers. Cells migrate overnight at 37° C., under 5% CO2 in incubator. Next, Boyden chambers are disassembled the and filters collected. The cells on the filters after collection are treated with −20° C. methanol for 3 minutes at room temperature and stained with 30% Geimsa for 7 minutes at room temperature, and washed with water twice. The filters are mounted on slides, air dried and the cells counted.
Cell numbers were obtained by counting the cells in four fields of filters using a 40× objective. The cells migrating into the bottom chambers were also counted as follows: a) 200 μL fluid in the bottom chamber was transferred to a well of 96-well plate; b) The plate was centrifuged at 1200 rpm for 5 minutes; c) 180 μL of supernatant was removed; d) The cell pellet was resuspended with the remaining 20 μL fluid and the cells counted using a hemocytometer. […] This compares favorably to the Å6 peptide which is effective between 5 μM and 100 nM.

[2] = test system: PKCalpha; experiment: PKCalpha phosphorylation in SKOV3 cells, immunoblot; type: cell-based
Method: Cells were detached from their culture vessels by brief trypsinization, suspended in complete media and centrifuged at 250×g for 10 min at room temperature. The cell pellets were suspended in Dulbeco's phosphate buffered saline (DPBS) and re-centrifuged for a total of three washes. The cells were then re-suspended at 3.33E5/ml in 24 ml of either RPMI containing 0.5% BSA (Sigma Chem. Co. #A0336) (RPMI/BSA) or the conditioned media of growing NIH3T3 fibroblasts (10% FBS in DMEM) supplemented with 10 ng/ml vascular endothelial growth factor (VEGF) (CMN). The cells were then treated with or without 100 ug/ml soluble hyaluronic acid (HA; human umbilical, Calbiochem #385902) for 30 min at 37° C. under 5% CO2. Aliquots representing 2E6 cells were then plated into 10 cm culture dishes and A6 added to yield final concentrations of 0, 10, 100 and 1000 nM. The cells were cultured overnight (18 hr) at 37° C. under 5% CO2.
After 18 hr of treatment, the media were aspirated from the 10 cm dishes and saved. The plates were washed 3 times with 4 ml of ice-cold DPBS which were pooled with the reserved non-adherent cells. The non-adherent cells were centrifuged at 250×g for 10 min at 4° C., washed twice with cold DPBS, drained and lysed in 50 ul of cold RIPA buffer (ThermoScientific #89901) containing cocktails of broad spectrum phosphatase inhibitors (Calbiochem #524625; used at 2× final concentration) and protease inhibitors (Sigma #P8340) (RIPA/inh.). The 10 cm dishes were drained of remaining wash and the adherent cells lysed by scraping in 200 μL of cold RIPA/inh. For each test condition, the lysates of the non-adherent and adherent populations were combined, vortexed and then centrifuged at 14,000 rpm at 4° C. for 20 min. Aliquots of the cleared lysates were frozen at −80° C. immediately. A small aliquot was reserved for total protein analysis using a BCA Protein Assay Kit (Calbiochem #71285-3).
Samples representing 20 μg of total protein of each lysate were solubilized in the presence of 50 mM Tris pH 6.8, 10% glycerol, 2% SDS and 100 mM DTT for 5 min at 95° C. and then loaded onto 10-20% acrylamide gels (BioRad #345-0044, Tris-HCl, 1 mm, 26 well, 15 μL/well). Electrophoresis was performed using Laemli electrophoresis buffer (0.1% SDS, 25 mM Tris, 192 mM glycine) at 200 V, constant voltage, for one hour. Upon completion of electrophoresis, the proteins were transferred to Immun-Blot PVDF membranes (BioRad #162-0238) in ice-cold 20% methanol in 25 mM Tris, 192 mM glycine for 2 hr at 0.5 Amps, constant current/blotting apparatus. The membranes were then cut vertically between molecular weight markers and in half at the 64 kDa marker to generate pieces for screening of higher molecular weight proteins (e.g., FAK) and lower molecular weight proteins (e.g., MEK and GAPDH). […]

With “acetyl-Lys-Pro-Ser-Ser-Pro-Pro-Glu-Glu-NH2 (Ac-KPSSPPEE-NH2) [Å6]” the SKOV3 migration ([1]; 10 ng/ml VEGF in NIH3T3-conditioned media, overnight) was “strong inhibition”, the “cell migration inhibition, lower end of effective concentration range” value ([1]; SKOV3) was 100 nM and the “cell migration inhibition, upper end of effective concentration range” value ([1]; SKOV3) was 5 µM. The “total PKCalpha” value ([2]; CM/V cultured samples) was “decreased”, the pPKCa/PKCa ([2]; CM/V in the absence of HA) was “decreased” and the pPKCa/PKCa ([2]; in the presence of HA) was “appears to have further enhanced”.
